Results on seven cell lines are retold here after the supplement of paper PMC10307832.

Holding throughout (assay): relative viability (nuclei count vs DMSO), 5 days (fraction); higher = more cells survive
Compound in the assay “CAP-232 + Palbociclib”: C[C@H]([C@@H](C(=O)N)NC(=O)[C@@H]1CSSC[C@@H](C(=O)N[C@H](C(=O)N[C@@H](C(=O)N[C@H](C(=O)N1)CCCCN)CC2=CNC3=CC=CC=C32)CC4=CC=C(C=C4)O)NC(=O)[C@@H](CC5=CC=CC=C5)N)O [CAP-232] + CC(=O)c1c(C)c2cnc(Nc3ccc(N4CCNCC4)cn3)nc2n(C2CCCC2)c1=O [Palbociclib] (partner 0.5 µM)
The method in brief: (§1)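 Each reported value is a median over duplicate plates. It expresses relative viability: treated-well nuclei count divided by vehicle-well nuclei count. Lung cancer cell lines in 1536-well plates were dosed by pin tool a day after seeding, alone with one drug or with a fixed anchor-drug dose plus five library-drug doses (not always all listed) in √10 steps, and nuclei were counted after 5 days.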

Compound in the assay “CAP-232 + Pictilisib”: C[C@H]([C@@H](C(=O)N)NC(=O)[C@@H]1CSSC[C@@H](C(=O)N[C@H](C(=O)N[C@@H](C(=O)N[C@H](C(=O)N1)CCCCN)CC2=CNC3=CC=CC=C32)CC4=CC=C(C=C4)O)NC(=O)[C@@H](CC5=CC=CC=C5)N)O [CAP-232] + CS(=O)(=O)N1CCN(Cc2cc3nc(-c4cccc5[nH]ncc45)nc(N4CCOCC4)c3s2)CC1 [Pictilisib] (partner 1 µM)
The method in brief:
as §1

Compound in the assay “CAP-232 + Trametinib”: C[C@H]([C@@H](C(=O)N)NC(=O)[C@@H]1CSSC[C@@H](C(=O)N[C@H](C(=O)N[C@@H](C(=O)N[C@H](C(=O)N1)CCCCN)CC2=CNC3=CC=CC=C32)CC4=CC=C(C=C4)O)NC(=O)[C@@H](CC5=CC=CC=C5)N)O [CAP-232] + CC(=O)Nc1cccc(-n2c(=O)n(C3CC3)c(=O)c3c(Nc4ccc(I)cc4F)n(C)c(=O)c(C)c32)c1 [Trametinib] (partner 0.02 µM)
The method in brief: as §1

Compound in the assay “CAP-232 + Luminespib”: C[C@H]([C@@H](C(=O)N)NC(=O)[C@@H]1CSSC[C@@H](C(=O)N[C@H](C(=O)N[C@@H](C(=O)N[C@H](C(=O)N1)CCCCN)CC2=CNC3=CC=CC=C32)CC4=CC=C(C=C4)O)NC(=O)[C@@H](CC5=CC=CC=C5)N)O [CAP-232] + CCNC(=O)c1noc(-c2cc(C(C)C)c(O)cc2O)c1-c1ccc(CN2CCOCC2)cc1 [Luminespib] (partner 0.01 µM)
The method in brief:
as §1

Compound in the assay “CAP-232 + Lapatinib”: C[C@H]([C@@H](C(=O)N)NC(=O)[C@@H]1CSSC[C@@H](C(=O)N[C@H](C(=O)N[C@@H](C(=O)N[C@H](C(=O)N1)CCCCN)CC2=CNC3=CC=CC=C32)CC4=CC=C(C=C4)O)NC(=O)[C@@H](CC5=CC=CC=C5)N)O [CAP-232] + CS(=O)(=O)CCNCc1ccc(-c2ccc3ncnc(Nc4ccc(OCc5cccc(F)c5)c(Cl)c4)c3c2)o1 [Lapatinib] (partner 2 µM)
The method in brief:
as §1

In the case of LU99A, the relative viability came to 0.392 in the assay with CAP-232 + Palbociclib (first compound 0.4 µM); 0.375 in the assay with CAP-232 + Palbociclib (first compound 1.265 µM); 0.407 with CAP-232 + Palbociclib (first compound 4 µM); 0.505 in the assay with CAP-232 + Palbociclib (first compound 12.65 µM); 0.376 with CAP-232 + Pictilisib (first compound 0.4 µM); 0.307 with CAP-232 + Pictilisib (first compound 1.265 µM). The relative viability with CAP-232 + Pictilisib (first compound 4 µM) is 0.328; in the assay with CAP-232 + Pictilisib (first compound 12.65 µM), 0.292; in the assay with CAP-232 + Trametinib (first compound 0.4 µM) it was 0.283; with CAP-232 + Trametinib (first compound 1.265 µM) it was 0.634; with CAP-232 + Trametinib (first compound 4 µM), 0.553; with CAP-232 + Trametinib (first compound 12.65 µM) it was 0.444. The relative viability with CAP-232 + Luminespib (first compound 0.4 µM) is 0.333; with CAP-232 + Luminespib (first compound 1.265 µM) it was 0.267; in the assay with CAP-232 + Luminespib (first compound 4 µM) it was 0.182; with CAP-232 + Luminespib (first compound 12.65 µM), 0.246; with CAP-232 + Lapatinib (first compound 0.4 µM), 0.964; in the assay with CAP-232 + Lapatinib (first compound 1.265 µM), 1.03. Further, the relative viability with CAP-232 + Lapatinib (first compound 4 µM) is 1.13; with CAP-232 + Lapatinib (first compound 12.65 µM), 1.05.

Regarding LXF-289, the relative viability with CAP-232 + Palbociclib (first compound 0.4 µM) is 0.611; with CAP-232 + Palbociclib (first compound 1.265 µM), 0.625; with CAP-232 + Palbociclib (first compound 4 µM) it was 0.58; in the assay with CAP-232 + Palbociclib (first compound 12.65 µM), 0.62; with CAP-232 + Pictilisib (first compound 0.4 µM) it was 0.817; with CAP-232 + Pictilisib (first compound 1.265 µM), 0.768. Also, the relative viability with CAP-232 + Pictilisib (first compound 4 µM) worked out at 0.755; in the assay with CAP-232 + Pictilisib (first compound 12.65 µM), 0.798; with CAP-232 + Trametinib (first compound 0.4 µM) it was 0.657; in the assay with CAP-232 + Trametinib (first compound 1.265 µM) it was 0.687; with CAP-232 + Trametinib (first compound 4 µM) it was 0.657; with CAP-232 + Trametinib (first compound 12.65 µM), 0.713. For the same cell line, the relative viability with CAP-232 + Luminespib (first compound 0.4 µM) worked out at 0.787; with CAP-232 + Luminespib (first compound 1.265 µM), 0.642; in the assay with CAP-232 + Luminespib (first compound 4 µM) it was 0.581; with CAP-232 + Luminespib (first compound 12.65 µM), 0.775; in the assay with CAP-232 + Lapatinib (first compound 0.4 µM) it was 0.952; with CAP-232 + Lapatinib (first compound 1.265 µM), 0.903. Besides, the figures for the relative viability in the assay with CAP-232 + Lapatinib (first compound 4 µM) and with CAP-232 + Lapatinib (first compound 12.65 µM) were 0.914 and 0.953, respectively.

With NCI-H23, the relative viability stood at 0.437 with CAP-232 + Palbociclib (first compound 0.4 µM); 0.478 with CAP-232 + Palbociclib (first compound 1.265 µM); 0.523 in the assay with CAP-232 + Palbociclib (first compound 4 µM); 0.567 with CAP-232 + Palbociclib (first compound 12.65 µM); 0.405 with CAP-232 + Pictilisib (first compound 0.4 µM); 0.491 with CAP-232 + Pictilisib (first compound 1.265 µM). Also, the relative viability was found to be 0.504 with CAP-232 + Pictilisib (first compound 4 µM); 0.462 in the assay with CAP-232 + Pictilisib (first compound 12.65 µM); 0.339 with CAP-232 + Trametinib (first compound 0.4 µM); 0.435 with CAP-232 + Trametinib (first compound 1.265 µM); 0.439 with CAP-232 + Trametinib (first compound 4 µM); 0.28 with CAP-232 + Trametinib (first compound 12.65 µM). In addition, the relative viability was 0.218 in the assay with CAP-232 + Luminespib (first compound 0.4 µM); 0.196 with CAP-232 + Luminespib (first compound 1.265 µM); 0.197 with CAP-232 + Luminespib (first compound 4 µM); 0.119 with CAP-232 + Luminespib (first compound 12.65 µM); 0.949 in the assay with CAP-232 + Lapatinib (first compound 0.4 µM); 1.03 in the assay with CAP-232 + Lapatinib (first compound 1.265 µM). The relative viability with CAP-232 + Lapatinib (first compound 4 µM) stood at 1.07; with CAP-232 + Lapatinib (first compound 12.65 µM) it was 0.828.

In the case of NCI-H322M, the relative viability was found to be 0.494 with CAP-232 + Palbociclib (first compound 0.4 µM); 0.427 in the assay with CAP-232 + Palbociclib (first compound 1.265 µM); 0.446 in the assay with CAP-232 + Palbociclib (first compound 4 µM); 0.508 with CAP-232 + Palbociclib (first compound 12.65 µM); 0.54 with CAP-232 + Pictilisib (first compound 0.4 µM); 0.556 with CAP-232 + Pictilisib (first compound 1.265 µM). The relative viability is 0.519 with CAP-232 + Pictilisib (first compound 4 µM); 0.487 in the assay with CAP-232 + Pictilisib (first compound 12.65 µM); 0.46 with CAP-232 + Trametinib (first compound 0.4 µM); 0.514 in the assay with CAP-232 + Trametinib (first compound 1.265 µM); 0.497 in the assay with CAP-232 + Trametinib (first compound 4 µM); 0.539 in the assay with CAP-232 + Trametinib (first compound 12.65 µM). The relative viability with CAP-232 + Luminespib (first compound 0.4 µM) was 0.686; in the assay with CAP-232 + Luminespib (first compound 1.265 µM) it was 0.832; with CAP-232 + Luminespib (first compound 4 µM), 0.809; in the assay with CAP-232 + Luminespib (first compound 12.65 µM), 0.565; with CAP-232 + Lapatinib (first compound 0.4 µM), 0.558; with CAP-232 + Lapatinib (first compound 1.265 µM) it was 0.492. Moreover, the relative viability with CAP-232 + Lapatinib (first compound 4 µM) stood at 0.69; with CAP-232 + Lapatinib (first compound 12.65 µM), 0.589.

For the cell line NCI-H358, the relative viability with CAP-232 + Palbociclib (first compound 0.4 µM) came to 0.22; in the assay with CAP-232 + Palbociclib (first compound 1.265 µM), 0.125; with CAP-232 + Palbociclib (first compound 4 µM) it was 0.14; in the assay with CAP-232 + Palbociclib (first compound 12.65 µM), 0.153; in the assay with CAP-232 + Pictilisib (first compound 0.4 µM) it was 0.28; with CAP-232 + Pictilisib (first compound 1.265 µM), 0.301. The relative viability with CAP-232 + Pictilisib (first compound 4 µM) worked out at 0.298; in the assay with CAP-232 + Pictilisib (first compound 12.65 µM) it was 0.402; with CAP-232 + Trametinib (first compound 0.4 µM) it was 0.111; with CAP-232 + Trametinib (first compound 1.265 µM), 0.138; with CAP-232 + Trametinib (first compound 4 µM), 0.13; with CAP-232 + Trametinib (first compound 12.65 µM) it was 0.098. Besides, the relative viability came to 0.241 with CAP-232 + Luminespib (first compound 0.4 µM); 0.289 with CAP-232 + Luminespib (first compound 1.265 µM); 0.376 with CAP-232 + Luminespib (first compound 4 µM); 0.352 with CAP-232 + Luminespib (first compound 12.65 µM); 0.395 with CAP-232 + Lapatinib (first compound 0.4 µM); 0.393 with CAP-232 + Lapatinib (first compound 1.265 µM). For the same cell line, the relative viability is 0.436 with CAP-232 + Lapatinib (first compound 4 µM) and 0.445 in the assay with CAP-232 + Lapatinib (first compound 12.65 µM).

Regarding NCI-H460, the relative viability with CAP-232 + Palbociclib (first compound 0.4 µM) is 0.246; with CAP-232 + Palbociclib (first compound 1.265 µM), 0.148; with CAP-232 + Palbociclib (first compound 4 µM), 0.155; with CAP-232 + Palbociclib (first compound 12.65 µM), 0.0823; with CAP-232 + Pictilisib (first compound 0.4 µM) it was 0.328; with CAP-232 + Pictilisib (first compound 1.265 µM) it was 0.306. Further, the relative viability in the assay with CAP-232 + Pictilisib (first compound 4 µM) is 0.433; with CAP-232 + Pictilisib (first compound 12.65 µM) it was 0.349; with CAP-232 + Trametinib (first compound 0.4 µM), 0.134; with CAP-232 + Trametinib (first compound 1.265 µM), 0.208; in the assay with CAP-232 + Trametinib (first compound 4 µM), 0.165; with CAP-232 + Trametinib (first compound 12.65 µM), 0.0175. Besides, the relative viability with CAP-232 + Luminespib (first compound 0.4 µM) was found to be 0.0294; in the assay with CAP-232 + Luminespib (first compound 1.265 µM), 0.0314; with CAP-232 + Luminespib (first compound 4 µM) it was 0.0247; with CAP-232 + Luminespib (first compound 12.65 µM) it was 0.0208; in the assay with CAP-232 + Lapatinib (first compound 0.4 µM) it was 1.11; in the assay with CAP-232 + Lapatinib (first compound 1.265 µM) it was 1.02. Also, the relative viability in the assay with CAP-232 + Lapatinib (first compound 4 µM) amounted to 1.62; in the assay with CAP-232 + Lapatinib (first compound 12.65 µM), 0.773.

On to NCI-H520, for which the relative viability was 0.241 with CAP-232 + Palbociclib (first compound 0.4 µM); 0.224 with CAP-232 + Palbociclib (first compound 1.265 µM); 0.249 in the assay with CAP-232 + Palbociclib (first compound 4 µM); 0.234 with CAP-232 + Palbociclib (first compound 12.65 µM); 0.379 in the assay with CAP-232 + Pictilisib (first compound 0.4 µM); 0.315 with CAP-232 + Pictilisib (first compound 1.265 µM). Moreover, the relative viability was found to be 0.314 with CAP-232 + Pictilisib (first compound 4 µM); 0.25 with CAP-232 + Pictilisib (first compound 12.65 µM); 0.559 with CAP-232 + Trametinib (first compound 0.4 µM); 0.637 with CAP-232 + Trametinib (first compound 1.265 µM); 0.799 with CAP-232 + Trametinib (first compound 4 µM); 0.521 with CAP-232 + Trametinib (first compound 12.65 µM). The relative viability stood at 0.22 with CAP-232 + Luminespib (first compound 0.4 µM); 0.206 with CAP-232 + Luminespib (first compound 1.265 µM); 0.184 with CAP-232 + Luminespib (first compound 4 µM); 0.208 with CAP-232 + Luminespib (first compound 12.65 µM); 0.961 in the assay with CAP-232 + Lapatinib (first compound 0.4 µM); 0.858 in the assay with CAP-232 + Lapatinib (first compound 1.265 µM). Further, the results for the relative viability with CAP-232 + Lapatinib (first compound 4 µM) and with CAP-232 + Lapatinib (first compound 12.65 µM) were 0.965 and 0.684, respectively.
